# Experiments:
# [1] = system: Alzheimer's Disease mice (ALCL3 orally and D-galactose IP for 90 days); conditions: cited from earlier work
# [2] = system: homocysteine directly injected into the hippocampus; conditions: intraperitoneal curcumin; cited from earlier work
# [3] = system: chronic unpredictable mild stress (CUMS); conditions: CUMS rats; cited from earlier work
# [4] = Brain tissue and plasma curcumin levels in rats after intravenous bolus injection (HPLC); assay type: in vivo, Sprague-Dawley rats; conditions: intravenous curcumin formulations
# [5] = system: sodium arsenite neuro-behavioral neurotransmission toxicity; conditions: rats, arsenite 20 mg/kg for 28 days; oral curcumin 100 mg/kg daily × 28 days; cited from earlier work
# [6] = system: murine multipotent neural progenitor cells (NPC); conditions: cited from earlier work
# 6-OHDA toxicity = conditions: rat; cited from earlier work
# PC12 cells = conditions: cultured PC12 cells; cited from earlier work
smiles,measurement,setting,value
"COc1cc(C=CC(=O)CC(=O)C=Cc2ccc(O)c(OC)c2)ccc1O [curcumin, 1,7-bis(4-hydroxy-3-methoxyphenyl)-1,6-heptadiene-3,5-dione]","Memory ability, step-through test",[1],improves the memory ability
same,Activity against homocysteine injected into the hippocampus,[2],neuroprotective activity
same,Effect on chronic unpredictable mild stress (CUMS),[3],improves chronic unpredictable mild stress
same,"Curcumin detectible in the hippocampus, brainstem and striatum, share of dose",[4],less than 0.5 % of the total injected dose
same,Effect on arsenite-induced deleterious effects,[5],counteracted
same,Concentration that decreases proliferation of NPCs and cancer cells,[6],> 10 µM
same,Concentration that inhibits neurogenesis and neuroplasticity,"[6]; hippocampus stem and neuronal progenitor cells, high concentration",10 µM
same,Concentration that enhances / stimulates hippocampal neurogenesis,"[6]; hippocampus stem and neuronal progenitor cells, low concentration",500 nM
same,Concentration that increases NPC proliferation,"[6]; ×24-48 h, NPC but not tumor cells",0.1 to 0.5 µM
same,Effect on 6-OHDA toxicity in striatum and Substantia Nigrum,6-OHDA toxicity,protects
same,Apoptosis induced by AlCl3,PC12 cells,inhibits apoptosis
